Assay results reported in the supplement of paper PMC13380429.

How the values were obtained:
Details in all cases: 72 h
U2OS [1] = assay: cell viability relative to DMSO; higher = less toxic
HepG2 [2] = assay: as above
Calu-3 [3] = assay: as above
Caco-2 [4] = assay: as above
Vero E6 [5] = assay: as above
U2OS [6] = assay: drug sensitivity score (DSS) for viability; higher = more toxic; extreme values may be limits of the assay
HepG2 [7] = assay: as above
Calu-3 [8] = assay: as above
Caco-2 [9] = assay: as above
Vero E6 [10] = assay: as above
U2OS [11] = assay: relative viability EC50 (midpoint between 100% and the lowest measured viability); higher = less toxic
HepG2 [12] = assay: as above
Caco-2 [13] = assay: as above
Vero E6 [14] = assay: as above
Calu-3 [15] = assay: as above

| Compound | cell viability (U2OS [1]; 1 nM) [%] | cell viability (U2OS [1]; 10 nM) [%] | cell viability (U2OS [1]; 100 nM) [%] | cell viability (U2OS [1]; 1000 nM) [%] | cell viability (U2OS [1]; 10000 nM) [%] | cell viability (HepG2 [2]; 1 nM) [%] | cell viability (HepG2 [2]; 10 nM) [%] | cell viability (HepG2 [2]; 100 nM) [%] | cell viability (HepG2 [2]; 1000 nM) [%] | cell viability (HepG2 [2]; 10000 nM) [%] | cell viability (Calu-3 [3]; 1 nM) [%] | cell viability (Calu-3 [3]; 10 nM) [%] | cell viability (Calu-3 [3]; 100 nM) [%] | cell viability (Calu-3 [3]; 1000 nM) [%] | cell viability (Calu-3 [3]; 10000 nM) [%] | cell viability (Caco-2 [4]; 1 nM) [%] | cell viability (Caco-2 [4]; 10 nM) [%] | cell viability (Caco-2 [4]; 100 nM) [%] | cell viability (Caco-2 [4]; 1000 nM) [%] | cell viability (Caco-2 [4]; 10000 nM) [%] | cell viability (Vero E6 [5]; 1 nM) [%] | cell viability (Vero E6 [5]; 10 nM) [%] | cell viability (Vero E6 [5]; 100 nM) [%] | cell viability (Vero E6 [5]; 1000 nM) [%] | cell viability (Vero E6 [5]; 10000 nM) [%] | drug sensitivity score (U2OS [6]) | drug sensitivity score (HepG2 [7]) | drug sensitivity score (Calu-3 [8]) | drug sensitivity score (Caco-2 [9]) | drug sensitivity score (Vero E6 [10]) | relative viability EC50 (U2OS [11]) [µM] | relative viability EC50 (HepG2 [12]) [µM] | relative viability EC50 (Caco-2 [13]) [µM] | relative viability EC50 (Vero E6 [14]) [µM] | relative viability EC50 (Calu-3 [15]) [µM] |
| --- | --- | --- | --- | --- | --- | --- | --- | --- | --- | --- | --- | --- | --- | --- | --- | --- | --- | --- | --- | --- | --- | --- | --- | --- | --- | --- | --- | --- | --- | --- | --- | --- | --- | --- | --- |
| COc1ccc2[nH]c(C(=O)c3ccccc3)cc2c1 | 96.5 | 99.9 | 91.5 | 37.3 | 23.3 | 99.2 | 92.7 | 94.8 | 36.4 | 29.6 | 107 | 104 | 89.3 | 67.8 | 56.2 | 95 | 108 | 62.1 | 55.4 | 43.2 | 95.1 | 97.9 | 79.6 | 30.5 | 26.6 | 12.7 | 12.4 | 6.8 | 14.9 | 15.3 | 0.383 | 0.338 | 0.0765 | 0.178 |  |
| CC(C)(C)n1nc(-c2cccc3ccccc23)c2c(N)ncnc21 [1-naphthyl-PP1] | 100 | 96.4 | 109 | 94.4 | 75.6 | 115 | 115 | 95.6 | 105 | 82.8 | 91.6 | 104 | 98.4 | 100 | 73 | 104 | 93.1 | 98.6 | 101 | 86.1 | 107 | 99 | 103 | 110 | 78.6 | 1.7 | 0.2 | 1.1 | 0.1 | 0.4 | > 10 | > 10 | > 10 | > 10 |  |
| O=c1cc[nH]c(=S)[nH]1 [2-thiouracil] | 98.5 | 96.4 | 99.7 | 97.5 | 98.6 |  |  |  |  |  | 102 | 110 | 95.2 | 95.7 | 100 | 111 | 85.8 | 97.1 | 99 | 102 | 108 | 98.6 | 99.5 | 108 | 93.8 | 0 |  | 0 | 0 | 0 | > 10 |  | > 10 | > 10 | > 10 |
| Cc1cc(C)c(S(=O)(=O)n2cc(C)cc2C)c(C)c1 [HJC-0350] | 97.4 | 98.2 | 102 | 106 | 93.4 |  |  |  |  |  | 93.7 | 99.4 | 92.9 | 103 | 96.5 | 95.5 | 98.2 | 93.6 | 96.6 | 93.2 | 97.5 | 99.5 | 98.6 | 95.5 | 96.2 | 0 |  | 0 | 0 | 0 | > 10 |  | > 10 | > 10 | > 10 |
| COc1cc(OCc2cccc(-c3ccccc3)c2C)cc(OC)c1CN1CCCC[C@H]1C(=O)O [PD1-PDL-inhibitor-1] | 99.3 | 98.7 | 101 | 99 | 95.8 |  |  |  |  |  | 98.2 | 99.1 | 98.1 | 102 | 102 | 104 | 94.5 | 94.4 | 96.3 | 102 | 99.5 | 106 | 99.3 | 105 | 103 | 0 |  | 0 | 0 | 0 | > 10 |  | > 10 | > 10 | > 10 |
| CCC1(C2=NCCN2)Cc2ccccc2O1 (stereo not drawn) [efaroxan] | 107 | 107 | 101 | 95.8 | 101 |  |  |  |  |  | 109 | 93.4 | 109 | 101 | 110 | 102 | 96.7 | 97.1 | 90.4 | 98.7 | 102 | 101 | 101 | 98.4 | 106 | 0 |  | 0 | 0 | 0 | > 10 |  | > 10 | > 10 | > 10 |
| C[C@H](N[C@@H](CCc1ccccc1)C(=O)O)C(=O)N1CCC[C@H]1C(=O)O [enalaprilat] | 96.5 | 97.9 | 94.9 | 96.7 | 104 |  |  |  |  |  | 101 | 101 | 105 | 89 | 97.2 | 92.8 | 104 | 90.1 | 97.5 | 94.7 | 97.5 | 94.5 | 99.1 | 101 | 107 | 0 |  | 0.2 | 0 | 0 | > 10 |  | > 10 | > 10 | > 10 |
